Reference: PubChem BioAssay (NCI)
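Five concentrations, 48 hours, 96-well plates. TGI: concentration producing complete growth inhibition.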

What was measured:
Test in all cases: NCI tumour cell line growth inhibition, 48 h
[1] = test system: A498 renal
[2] = test system: A549 NSCLC
[3] = test system: ACHN renal
[4] = test system: CAKI-1 renal
[5] = test system: COLO 205 colon
[6] = test system: DLD-1 colon
[7] = test system: DMS 114 small cell lung
[8] = test system: DMS 273 small cell lung
[9] = test system: HCT-116 colon
[10] = test system: HCT-15 colon
[11] = test system: HOP-92 NSCLC
[12] = test system: HT29 colon
[13] = test system: IGROV1 ovarian
[14] = test system: KM12 colon
[15] = test system: KM20L2 colon
[16] = test system: LOX IMVI melanoma
[17] = test system: LXFL 529 NSCLC
[18] = test system: M14 melanoma
[19] = test system: MALME-3M melanoma
[20] = test system: NCI-H226 lung
[21] = test system: NCI-H23 lung
[22] = test system: NCI-H522 lung
[23] = test system: OVCAR-3 ovarian
[24] = test system: OVCAR-4 ovarian
[25] = test system: OVCAR-5 ovarian
[26] = test system: OVCAR-8 ovarian
[27] = test system: RPMI-8226 leukemia
[28] = test system: RXF 393 renal
[29] = test system: RXF-631 renal
[30] = test system: SF-295 CNS
[31] = test system: SF-539 CNS
[32] = test system: SK-MEL-2 melanoma
[33] = test system: SK-MEL-28 melanoma
[34] = test system: SK-MEL-5 melanoma
[35] = test system: SK-OV-3 ovarian
[36] = test system: SN12C renal
[37] = test system: SNB-19 CNS
[38] = test system: SNB-75 CNS
[39] = test system: SNB-78 CNS
[40] = test system: SW-620 colon
[41] = test system: TK-10 renal
[42] = test system: U251 CNS
[43] = test system: UACC-257 melanoma
[44] = test system: UACC-62 melanoma
[45] = test system: UO-31 renal
[46] = test system: XF 498 CNS
[47] = test system: 786-0 renal
[48] = test system: HCC-2998 colon
[49] = test system: HL-60(TB) leukemia
[50] = test system: HOP-62 NSCLC
[51] = test system: K-562 leukemia
[52] = test system: MOLT-4 leukemia
[53] = test system: NCI-H460 lung
[54] = test system: SF-268 CNS
[55] = test system: SR leukemia

Measured: TGI

COC(=O)C1=C(C)N(NC(=O)c2ccccc2)C2(O)CCCC(=O)C12C (stereo unspecified)
not listed: [47] | [48] | [49] | [50] | [51] | [52] | [53] | [54] | [55]
> 100 µM: all other assays above

Cc1ccc(NC(=O)CC2SC(N)=NC2=O)cc1C (stereo unspecified)
not listed: [1] | [7] | [8] | [28] | [34]
> 100 µM: all other assays above
